Laboratory results from patent US20150216978A1, “MODULATORS OF DRUGS USING CARBOXYLESTERASE SELECTIVE INHIBITORS” (Rhode Island Board of Education, State of Rhode Island and …, priority 2013, published 2015).

Legend:
CES1 = molecular target: T1, CES1 (Homo sapiens, UniProt P23141); assay: Inhibition of carboxylesterases by Orlistat (human CES1); format: biochemical
T1 sequence (P23141 18-567): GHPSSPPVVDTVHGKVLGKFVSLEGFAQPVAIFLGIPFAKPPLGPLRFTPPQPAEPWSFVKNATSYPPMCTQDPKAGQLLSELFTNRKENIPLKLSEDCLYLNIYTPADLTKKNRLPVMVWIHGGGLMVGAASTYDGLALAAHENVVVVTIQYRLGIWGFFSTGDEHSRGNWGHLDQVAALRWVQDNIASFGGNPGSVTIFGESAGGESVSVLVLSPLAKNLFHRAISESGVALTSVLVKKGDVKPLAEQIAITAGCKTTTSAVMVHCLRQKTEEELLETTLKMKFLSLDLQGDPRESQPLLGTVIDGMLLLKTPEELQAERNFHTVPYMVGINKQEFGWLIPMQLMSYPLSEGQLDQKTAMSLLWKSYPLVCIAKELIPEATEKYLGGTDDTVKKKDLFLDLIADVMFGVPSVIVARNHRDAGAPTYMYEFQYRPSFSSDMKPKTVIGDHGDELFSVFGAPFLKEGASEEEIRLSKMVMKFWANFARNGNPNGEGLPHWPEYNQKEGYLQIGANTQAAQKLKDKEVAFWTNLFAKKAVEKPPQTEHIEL
Text: (§1) For a decade, Orlistat has been the most used anti-obesity drug. However, the use of Orlistat has been associated with fatal liver and kidney toxicity. This type of toxicity is rare, pointing to a compound effect of multiple factors. Specifically, we assumed that orlistat alters the activity of detoxification enzymes, which may have fatal effects when these factors are perfectly aligned. To shed light on this possibility, we tested Orlistat for the inhibition of carboxylesterases, a class of hydrolytic enzymes with known detoxication significance. […] Orlistat at 1 nM inhibited CES2 by 75%, but no inhibition was detected with CES1. […] In a striking contrast, rat ces1d and ces1e, two major forms of liver CESs, were resistant to Orlistat (Biochem Pharmacol. 2013, 85:439-447).

ces1d = molecular target: T2, ces1d (Mus musculus, UniProt Q8VCT4); details: 1 nM Orlistat; cited from earlier work
T2 sequence (Q8VCT4 19-565): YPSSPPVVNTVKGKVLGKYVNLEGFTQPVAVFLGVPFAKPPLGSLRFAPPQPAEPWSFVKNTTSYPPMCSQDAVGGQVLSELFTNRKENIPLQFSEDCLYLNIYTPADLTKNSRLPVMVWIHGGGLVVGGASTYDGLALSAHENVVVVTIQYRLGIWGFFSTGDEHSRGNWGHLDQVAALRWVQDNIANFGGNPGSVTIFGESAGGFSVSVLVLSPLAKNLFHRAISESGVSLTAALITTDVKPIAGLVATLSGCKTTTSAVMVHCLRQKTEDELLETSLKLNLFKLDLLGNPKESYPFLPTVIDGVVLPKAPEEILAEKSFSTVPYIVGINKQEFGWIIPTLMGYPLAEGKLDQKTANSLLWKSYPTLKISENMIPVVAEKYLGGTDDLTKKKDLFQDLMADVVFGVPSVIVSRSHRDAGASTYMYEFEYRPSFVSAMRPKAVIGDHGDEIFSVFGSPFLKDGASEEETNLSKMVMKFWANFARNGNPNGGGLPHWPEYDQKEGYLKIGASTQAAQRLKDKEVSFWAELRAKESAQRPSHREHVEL

mouse ces2c = molecular target: T3, mouse ces2c (Mus musculus, UniProt Q91WG0); details: 1 nM Orlistat; cited from earlier work
T3 sequence (Q91WG0 27-561): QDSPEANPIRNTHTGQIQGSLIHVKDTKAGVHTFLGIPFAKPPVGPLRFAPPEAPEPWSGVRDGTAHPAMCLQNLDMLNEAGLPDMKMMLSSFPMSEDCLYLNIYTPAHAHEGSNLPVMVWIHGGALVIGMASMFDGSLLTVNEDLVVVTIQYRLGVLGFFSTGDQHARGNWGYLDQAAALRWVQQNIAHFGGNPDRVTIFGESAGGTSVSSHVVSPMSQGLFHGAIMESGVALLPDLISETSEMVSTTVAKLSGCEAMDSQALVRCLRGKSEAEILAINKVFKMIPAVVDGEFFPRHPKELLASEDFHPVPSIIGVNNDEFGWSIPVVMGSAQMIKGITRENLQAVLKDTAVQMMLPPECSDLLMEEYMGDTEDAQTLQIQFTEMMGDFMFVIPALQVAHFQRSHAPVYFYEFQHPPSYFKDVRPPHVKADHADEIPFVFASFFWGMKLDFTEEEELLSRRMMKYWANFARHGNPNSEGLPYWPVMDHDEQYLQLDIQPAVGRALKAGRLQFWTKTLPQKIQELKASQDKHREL

CES2 [1] = molecular target: T4, CES2 (Homo sapiens, UniProt O00748); assay: Irreversibility: human liver microsomes incubated with Orlistat, native gel electrophoresis, activity staining (CES2); format: biochemical; parameters: from tissue; host or cells: human liver microsomes
T4 sequence (O00748 27-559): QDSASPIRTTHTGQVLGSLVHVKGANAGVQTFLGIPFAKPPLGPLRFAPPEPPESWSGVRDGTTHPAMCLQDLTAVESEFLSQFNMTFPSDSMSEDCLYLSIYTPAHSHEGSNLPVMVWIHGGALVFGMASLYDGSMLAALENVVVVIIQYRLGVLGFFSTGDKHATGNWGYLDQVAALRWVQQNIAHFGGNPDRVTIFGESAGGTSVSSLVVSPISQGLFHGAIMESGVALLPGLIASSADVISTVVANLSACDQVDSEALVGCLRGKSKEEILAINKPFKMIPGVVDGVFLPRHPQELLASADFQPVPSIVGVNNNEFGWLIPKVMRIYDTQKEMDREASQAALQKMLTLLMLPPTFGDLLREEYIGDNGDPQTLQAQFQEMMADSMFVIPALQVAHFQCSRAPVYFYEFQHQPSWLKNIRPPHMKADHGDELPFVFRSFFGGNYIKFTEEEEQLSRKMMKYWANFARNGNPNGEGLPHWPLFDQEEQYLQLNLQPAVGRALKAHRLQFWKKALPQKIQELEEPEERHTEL
Protocol: It was tested whether the inhibition involves covalent interactions between Orlistat and CES2. Microsomes from human livers (CES1 and CES2) were incubated with Orlistat, resolved by native gel electrophoresis to remove free Orlistat, and stained for the remaining activity.

CES2 [2] = molecular target: T4, CES2; assay: Inhibition of carboxylesterases by Orlistat (human CES2); format: biochemical; details: Orlistat at 1 nM
Text: as §1

cells = assay: Cell viability of cells treated with PPD in the presence or absence of Orlistat; format: cell-based
Protocol: To shed light on the clinical consequences of inhibited CES2 by Orlistat, cells were treated with PPD in the presence or absence of Orlistat. PPD is a carbamate anticancer prodrug and activated preferentially by CES2 hydrolysis of the ester side chain of the carbamate (20, 21). […] This finding was confirmed in CES2 induced condition (Brit J Pharmacol. 2013, 168:1989-1999).

rat ces1d = molecular target: T5, rat ces1d (Rattus norvegicus, UniProt P16303); details: major form of rat liver CES; cited from earlier work
T5 sequence (P16303 19-565): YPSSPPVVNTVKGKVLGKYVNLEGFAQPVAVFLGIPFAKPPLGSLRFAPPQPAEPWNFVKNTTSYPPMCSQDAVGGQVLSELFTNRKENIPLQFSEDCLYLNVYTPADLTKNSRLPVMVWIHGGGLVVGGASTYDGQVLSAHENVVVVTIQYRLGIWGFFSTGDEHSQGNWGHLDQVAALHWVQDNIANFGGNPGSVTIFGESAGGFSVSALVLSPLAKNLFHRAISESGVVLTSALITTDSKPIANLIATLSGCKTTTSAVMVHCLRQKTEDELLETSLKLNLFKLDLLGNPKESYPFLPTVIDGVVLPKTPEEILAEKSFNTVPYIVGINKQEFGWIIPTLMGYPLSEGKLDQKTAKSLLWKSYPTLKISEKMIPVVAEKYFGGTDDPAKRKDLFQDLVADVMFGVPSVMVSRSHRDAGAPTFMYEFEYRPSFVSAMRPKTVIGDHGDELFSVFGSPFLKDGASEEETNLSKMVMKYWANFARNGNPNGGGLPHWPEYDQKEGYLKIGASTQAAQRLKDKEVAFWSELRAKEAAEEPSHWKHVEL

mouse ces2e = molecular target: T6, mouse ces2e (Mus musculus, UniProt Q8BK48); details: 1 nM Orlistat; cited from earlier work
T6 sequence (Q8BK48 27-559): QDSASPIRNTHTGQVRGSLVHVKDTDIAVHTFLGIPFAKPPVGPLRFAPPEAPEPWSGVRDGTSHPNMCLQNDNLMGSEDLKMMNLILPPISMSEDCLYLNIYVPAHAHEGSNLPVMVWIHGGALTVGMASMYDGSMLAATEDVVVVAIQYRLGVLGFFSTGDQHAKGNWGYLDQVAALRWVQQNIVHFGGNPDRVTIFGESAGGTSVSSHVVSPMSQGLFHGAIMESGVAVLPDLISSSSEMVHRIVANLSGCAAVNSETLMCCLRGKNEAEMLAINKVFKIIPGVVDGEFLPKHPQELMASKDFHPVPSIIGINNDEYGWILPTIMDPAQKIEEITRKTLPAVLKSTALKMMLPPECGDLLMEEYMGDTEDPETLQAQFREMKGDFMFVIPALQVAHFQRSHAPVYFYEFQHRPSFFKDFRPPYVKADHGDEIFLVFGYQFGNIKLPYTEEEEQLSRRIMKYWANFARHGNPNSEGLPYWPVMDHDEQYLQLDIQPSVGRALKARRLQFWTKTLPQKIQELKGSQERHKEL

rat ces1e = molecular target: T7, rat ces1e (Rattus norvegicus, UniProt Q63108); details: major form of rat liver CES; cited from earlier work
T7 sequence (Q63108 19-561): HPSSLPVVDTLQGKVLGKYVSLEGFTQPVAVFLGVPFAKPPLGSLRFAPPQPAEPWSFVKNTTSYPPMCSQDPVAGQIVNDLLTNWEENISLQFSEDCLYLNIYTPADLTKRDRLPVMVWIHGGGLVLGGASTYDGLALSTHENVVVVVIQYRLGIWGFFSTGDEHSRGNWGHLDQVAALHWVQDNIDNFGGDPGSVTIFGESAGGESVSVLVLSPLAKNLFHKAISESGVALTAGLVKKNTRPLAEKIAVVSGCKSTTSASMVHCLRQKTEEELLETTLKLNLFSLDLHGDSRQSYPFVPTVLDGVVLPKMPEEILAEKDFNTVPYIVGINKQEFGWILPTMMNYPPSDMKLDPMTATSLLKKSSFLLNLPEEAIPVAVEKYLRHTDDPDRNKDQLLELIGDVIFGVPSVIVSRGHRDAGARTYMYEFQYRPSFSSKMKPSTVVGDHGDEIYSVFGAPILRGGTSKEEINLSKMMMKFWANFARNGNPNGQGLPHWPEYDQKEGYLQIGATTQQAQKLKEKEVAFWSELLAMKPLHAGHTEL

CES2 [3] = molecular target: T4, CES2; assay: Cellular inhibition of CES2 in LS180 cells, lysates tested by native gel electrophoresis and Western blotting; format: cell-based; parameters: endogenous in cells; host or cells: LS180
Protocol: The cellular activity of Orlistat was examined on the inhibition of CES2 within cells. To test this possibility, LS180 cells (a colon adenocarcinoma line) were treated with orlistat for 1-24 h, washed extensively to remove free Orlistat and lysed by sonication. The lysates were then tested for the hydrolytic activity by native gel electrophoresis. […] We next tested whether the less inhibition by prolonged incubation was due to increased expression of CES2. Western blotting was performed with the same gel stained for activity. As predicated, prolonged incubation increased CES2 expression (FIG. 3B). These findings established that regeneration of CES2 requires new synthesis of CES2.

CCCCCCCCCCC[C@@H](C[C@@H]1OC(=O)[C@H]1CCCCCC)OC(=O)[C@H](CC(C)C)NC=O [Orlistat]
inhibition at 0.1 µM (CES1; 100 nM orlistat): ~30% | inhibition of CES1 (CES1; Orlistat at 1 nM): no inhibition | inhibition of ces1d (ces1d): 12% | inhibition of mouse ces2c (mouse ces2c): 90% | remaining activity of CES2 upon incubation with Orlistat (CES2 [1]; human liver microsomes, free Orlistat removed by native gel electrophoresis): profoundly reduced | type of inhibition of CES2 (CES2 [1]; inhibition persists after removal of Orlistat by electrophoresis): irreversible inhibitor | inhibition of CES2 (CES2 [2]): 75% | reduction of cell viability by PPD (carbamate) in the presence of Orlistat (cells; PPD plus Orlistat): significantly reversed | reduction of the cell killing activity of PPD (cells; pretreatment with Orlistat): ≤ 60% | cell viability (cells; treatment with substance alone): no changes | sensitivity of rat ces1d to Orlistat (rat ces1d): resistant | inhibition of mouse ces2e (mouse ces2e): 55% | sensitivity of rat ces1e to Orlistat (rat ces1e): resistant | inhibition of CES2 activity in cells (CES2 [3]; 1-h incubation): ~80% | CES2 expression (Western blotting) (CES2 [3]; prolonged incubation 24 h): increased | inhibition of CES2 activity in cells (CES2 [3]; prolonged incubation 24 h): less effective | inhibition of CES2 activity in cells (CES2 [3]; treated for 6 h): Comparable inhibition
